Reference: EPA's CvTdb concentration-time database

Key:
[1] = test system: Rat; test: concentration in liver after dosing; settings: dosed: Potassium Perfluorobutane Sulfonate, 20 mg/kg, oral
[2] = test system: Rat; test: concentration in plasma after dosing; settings: dosed: Potassium Perfluorobutane Sulfonate, 20 mg/kg, oral, Male, Harlan Sprague Dawley
[3] = test system: Rat; test: concentration in plasma after dosing; settings: 1.5 h; dosed: Potassium Perfluorobutane Sulfonate; 20 mg/kg; oral; Male; Harlan Sprague Dawley
[4] = test system: Rat; test: concentration in kidney after dosing; settings: dosed: Potassium Perfluorobutane Sulfonate, 20 mg/kg, oral
[5] = test system: Rat; test: concentration in plasma after dosing; settings: dosed: Potassium Perfluorobutane Sulfonate
[6] = test system: Rat; test: concentration in brain after dosing; settings: dosed: Potassium Perfluorobutane Sulfonate, 20 mg/kg, oral
[7] = test system: Rat; test: concentration in plasma after dosing; settings: 0.25 h; dosed: Potassium Perfluorobutane Sulfonate; 4 mg/kg; iv; Male; F344
[8] = test system: Rat; test: concentration in liver after dosing; settings: 6 h; dosed: Potassium Perfluorobutane Sulfonate; 20 mg/kg; oral; Male; Harlan Sprague Dawley
[9] = test system: rat; test: amount in urine after dosing (umol)
[10] = 0.5 h, Female, Harlan Sprague Dawley
[11] = 0.5 h, Male, Harlan Sprague Dawley
[12] = 0.5 h, Male, Harlan Sprague Dawley - this seems too small
[13] = 1 h, Female, Harlan Sprague Dawley
[14] = 1 h, Male, Harlan Sprague Dawley
[15] = 3 h, Female, Harlan Sprague Dawley
[16] = 3 h, Male, Harlan Sprague Dawley
[17] = 6 h, Female, Harlan Sprague Dawley
[18] = 6 h, Male, Harlan Sprague Dawley
[19] = 12 h, Male, Harlan Sprague Dawley

O=S(=O)([O-])C(F)(F)C(F)(F)C(F)(F)C(F)(F)F.[K+] [Potassium Perfluorobutane Sulfonate]
concentration in liver [1, 10]: 29500 ng/g
concentration in liver [1, 11]: 61000 ng/g
concentration in liver [1, 12]: 95200 ng/g
concentration in liver [1, 13]: 42000 ng/g
concentration in liver [1, 14]: 75600 ng/g
concentration in liver [1, 15]: 5790 ng/g
concentration in liver [1, 16]: 87000 ng/g
concentration in liver [1, 17]: 910 ng/g
concentration in liver [1, 18]: 51600 ng/g
concentration in liver [1, 19]: 7420 ng/g
concentration in plasma ([2]; 0.25 h): 30200 ng/mL
concentration in plasma ([2]; 24 h): 1070 ng/mL
concentration in plasma [3]: 58500 ng/mL
concentration in kidney [4, 10]: 30100 ng/g
concentration in kidney [4, 11]: 19000 ng/g
concentration in kidney [4, 12]: 19900 ng/g
concentration in kidney [4, 13]: 17600 ng/g
concentration in kidney [4, 14]: 14900 ng/g
concentration in kidney [4, 15]: 10900 ng/g
concentration in kidney [4, 16]: 19700 ng/g
concentration in kidney [4, 17]: 1290 ng/g
concentration in kidney [4, 18]: 15200 ng/g
concentration in kidney [4, 19]: 1960 ng/g
concentration in plasma ([5]; 5 min, 4 mg/kg, iv, Male, F344): 33300 ng/mL
concentration in plasma ([5]; 5 min, 4 mg/kg, oral, Male, Harlan Sprague Dawley): 537 ng/mL
concentration in plasma ([5]; 5 min, 20 mg/kg, oral, Male, Harlan Sprague Dawley): 653 ng/mL
concentration in plasma ([5]; 0.25 h, 4 mg/kg, iv, Male, F344): 28000 ng/mL
concentration in plasma ([5]; 0.25 h, 4 mg/kg, oral, Male, Harlan Sprague Dawley): 4690 ng/mL
concentration in plasma ([5]; 0.25 h, 20 mg/kg, oral, Male, Harlan Sprague Dawley): 28700 ng/mL
concentration in plasma ([5]; 0.5 h, 4 mg/kg, iv, Female, Harlan Sprague-Dawley): 11100 ng/mL
concentration in plasma ([5]; 0.5 h, 4 mg/kg, iv, Male, F344): 23800 ng/mL
concentration in plasma ([5]; 0.5 h, 4 mg/kg, oral, Male, Harlan Sprague Dawley): 9170 ng/mL
concentration in plasma ([5]; 0.75 h, 4 mg/kg, iv, Female, Harlan Sprague-Dawley): 7790 ng/mL
concentration in plasma ([5]; 0.75 h, 4 mg/kg, iv, Male, F344): 23800 ng/mL
concentration in plasma ([5]; 0.75 h, 4 mg/kg, oral, Male, Harlan Sprague Dawley): 9060 ng/mL
concentration in plasma ([5]; 0.75 h, 20 mg/kg, oral, Male, Harlan Sprague Dawley): 49600 ng/mL
concentration in plasma ([5]; 1 h, 4 mg/kg, iv, Female, Harlan Sprague-Dawley): 4090 ng/mL
concentration in plasma ([5]; 1 h, 4 mg/kg, iv, Male, F344): 22000 ng/mL
concentration in plasma ([5]; 1 h, 4 mg/kg, oral, Male, Harlan Sprague Dawley): 12900 ng/mL
concentration in plasma ([5]; 1.5 h, 4 mg/kg, iv, Male, F344): 18500 ng/mL
concentration in plasma ([5]; 1.5 h, 4 mg/kg, oral, Male, Harlan Sprague Dawley): 12100 ng/mL
concentration in plasma ([5]; 1.5 h, 20 mg/kg, oral, Male, Harlan Sprague Dawley): 63600 ng/mL
concentration in plasma ([5]; 3 h, 4 mg/kg, iv, Male, F344): 10500 ng/mL
concentration in plasma ([5]; 3 h, 4 mg/kg, oral, Male, Harlan Sprague Dawley): 15300 ng/mL
concentration in plasma ([5]; 6 h, 4 mg/kg, iv, Male, F344): 6690 ng/mL
concentration in plasma ([5]; 6 h, 4 mg/kg, oral, Male, Harlan Sprague Dawley): 12500 ng/mL
concentration in plasma ([5]; 9 h, 4 mg/kg, oral, Male, Harlan Sprague Dawley): 8100 ng/mL
concentration in plasma ([5]; 9 h, 20 mg/kg, oral, Male, Harlan Sprague Dawley): 15100 ng/mL
concentration in plasma ([5]; 12 h, 4 mg/kg, iv, Male, F344): 1600 ng/mL
concentration in plasma ([5]; 12 h, 4 mg/kg, oral, Male, Harlan Sprague Dawley): 9160 ng/mL
concentration in plasma ([5]; 24 h, 4 mg/kg, iv, Male, F344): 232 ng/mL
concentration in plasma ([5]; 24 h, 4 mg/kg, oral, Male, Harlan Sprague Dawley): 47.1 ng/mL
concentration in plasma ([5]; 24 h, 20 mg/kg, oral, Male, Harlan Sprague Dawley): 364 ng/mL
concentration in plasma ([5]; 48 h, 20 mg/kg, oral, Male, Harlan Sprague Dawley): 42.6 ng/mL
concentration in brain [6, 10]: 538 ng/g
concentration in brain [6, 11]: 590 ng/g
concentration in brain [6, 12]: 725 ng/g
concentration in brain [6, 14]: 1120 ng/g
concentration in brain [6, 16]: 769 ng/g
concentration in brain [6, 18]: 562 ng/g
concentration in plasma [7]: 16400 ng/mL
concentration in liver [8]: 43800 ng/g

CO [methanol]
amount in urine ([9]; 0.9577 h, dosed: methanol, 100 mg/kg, iv, male, CDF(F344)/CrlBR): 2.05
amount in urine ([9]; 2.957 h, dosed: methanol, 100 mg/kg, iv, male, CDF(F344)/CrlBR): 4.06
amount in urine ([9]; 5.924 h, dosed: methanol, 100 mg/kg, iv, male, CDF(F344)/CrlBR): 5.16
amount in urine ([9]; 9.972 h, dosed: methanol, 100 mg/kg, iv, male, CDF(F344)/CrlBR): 5.6
amount in urine ([9]; 11.92 h, dosed: methanol, 100 mg/kg, iv, male, CDF(F344)/CrlBR): 5.58
amount in urine ([9]; 14.94 h, dosed: methanol, 100 mg/kg, iv, male, CDF(F344)/CrlBR): 5.56

CC(C)(C)O [tert-butyl alcohol]
amount in urine ([9]; 5.904 h, dosed: methyl tert-butyl ether, 38.7 ppm, inhalation, duration: 4 hr, F344 (Harlan Winkelmann)): 0.773
amount in urine ([9]; 5.97 h, dosed: ethyl tert-butyl ether, 40.6 ppm, inhalation, duration: 4 hr, F344 (Harlan Winkelmann)): 0.601
amount in urine ([9]; 11.88 h, dosed: methyl tert-butyl ether, 38.7 ppm, inhalation, duration: 4 hr, F344 (Harlan Winkelmann)): 0.347
amount in urine ([9]; 11.92 h, dosed: ethyl tert-butyl ether, 40.6 ppm, inhalation, duration: 4 hr, F344 (Harlan Winkelmann)): 0.254
amount in urine ([9]; 11.96 h, dosed: methyl tert-butyl ether, 4.5 ppm, inhalation, duration: 4 hr, F344 (Harlan Winkelmann)): 0.24
amount in urine ([9]; 17.95 h, dosed: methyl tert-butyl ether, 4.5 ppm, inhalation, duration: 4 hr, F344 (Harlan Winkelmann)): 0.076
amount in urine ([9]; 17.97 h, dosed: methyl tert-butyl ether, 38.7 ppm, inhalation, duration: 4 hr, F344 (Harlan Winkelmann)): 0.126
amount in urine ([9]; 17.99 h, dosed: ethyl tert-butyl ether, 40.6 ppm, inhalation, duration: 4 hr, F344 (Harlan Winkelmann)): 0.187
amount in urine ([9]; 23.91 h, dosed: methyl tert-butyl ether, 4.5 ppm, inhalation, duration: 4 hr, F344 (Harlan Winkelmann)): 0.0671
amount in urine ([9]; 23.93 h, dosed: methyl tert-butyl ether, 38.7 ppm, inhalation, duration: 4 hr, F344 (Harlan Winkelmann)): 0.0789
amount in urine ([9]; 23.94 h, dosed: ethyl tert-butyl ether, 40.6 ppm, inhalation, duration: 4 hr, F344 (Harlan Winkelmann)): 0.0668
amount in urine ([9]; 29.91 h, dosed: methyl tert-butyl ether, 38.7 ppm, inhalation, duration: 4 hr, F344 (Harlan Winkelmann)): 0.0315
amount in urine ([9]; 29.93 h, dosed: ethyl tert-butyl ether, 40.6 ppm, inhalation, duration: 4 hr, F344 (Harlan Winkelmann)): 0.0668
amount in urine ([9]; 29.96 h, dosed: methyl tert-butyl ether, 4.5 ppm, inhalation, duration: 4 hr, F344 (Harlan Winkelmann)): 0.083
